Structures can show the parent of a compound that is named as a salt.
These compounds were tested against human 5-HT3 serotonin receptors (Homo sapiens (Human), UniProt P46098) (assay: [3H]BRL 43694 competition binding). Settings: CHO cell membranes, [3H]BRL 43694, Cheng Prusoff; read-out: h-5HT3 Ki.
human 5-HT3 serotonin receptors, sequence (P46098 24-478): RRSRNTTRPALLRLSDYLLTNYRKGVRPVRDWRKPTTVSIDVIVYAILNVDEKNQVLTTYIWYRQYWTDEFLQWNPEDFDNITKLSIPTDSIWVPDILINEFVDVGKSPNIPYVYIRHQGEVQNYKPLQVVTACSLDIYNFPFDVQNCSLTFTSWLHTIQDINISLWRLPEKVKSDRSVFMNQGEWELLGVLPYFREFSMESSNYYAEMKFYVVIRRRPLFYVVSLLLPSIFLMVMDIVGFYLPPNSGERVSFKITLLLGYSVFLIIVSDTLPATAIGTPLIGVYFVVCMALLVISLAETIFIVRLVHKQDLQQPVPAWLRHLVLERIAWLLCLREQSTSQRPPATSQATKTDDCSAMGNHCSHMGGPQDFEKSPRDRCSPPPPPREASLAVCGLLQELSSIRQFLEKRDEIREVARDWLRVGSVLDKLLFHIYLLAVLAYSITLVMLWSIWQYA

Compound	Ki [nM]
CC1(C)[C@H](NC(=O)c2cc3ccc(Cl)c(C(F)(F)F)c3s2)C2CCN1CC2 [(R)-111, (R)-6-chloro-N-(2,2-dimethylquinuclidin-3-yl)-7-(trifluoromethyl)benzo[b]thiophene-2-carboxamide hydrochloride]	> 10000
Cc1ccc2cc(C(=O)N[C@@H]3C4CCN(CC4)C3(C)C)sc2c1C(F)(F)F [(R)-113, (R)—N-(2,2-dimethylquinuclidin-3-yl)-6-methyl-7-(trifluoromethyl)benzo[b]thiophene-2-carboxamide hydrochloride]	> 10000
CC1(C)[C@H](NC(=O)c2cc3cccc(C4CC4)c3s2)C2CCN1CC2 [(R)-118, (R)-7-cyclopropyl-N-(2,2-dimethylquinuclidin-3-yl)benzo[b]thiophene-2-carboxamide hydrochloride]	230
CC1(C)[C@H](NC(=O)c2cc3cc(F)c(Cl)cc3s2)C2CCN1CC2 [(R)-123, (R)-6-chloro-N-(2,2-dimethylquinuclidin-3-yl)-5-fluorobenzo[b]thiophene-2-carboxamide hydrochloride]	> 10000
CC1(C)[C@H](NC(=O)c2cc3cc(F)c(Cl)c(F)c3s2)C2CCN1CC2 [(R)-125, (R)-6-chloro-N-(2,2-dimethylquinuclidin-3-yl)-5,7-difluorobenzo[b]thiophene-2-carboxamide hydrochloride]	> 10000
Cc1cccc2cc(C(=O)N[C@@H]3C4CCN(CC4)C3(C)C)sc12 [(R)-126, (R)—N-(2,2-dimethylquinuclidin-3-yl)-7-methylbenzo[b]thiophene-2-carboxamide hydrochloride]	170
CC1(C)[C@H](NC(=O)c2cc3cccc(CC(F)(F)F)c3s2)C2CCN1CC2 [(R)-127, (R)—N-(2,2-dimethylquinuclidin-3-yl)-7-(2,2,2-trifluoroethyl)benzo[b]thiophene-2-carboxamide hydrochloride]	1100
CC1(C)[C@H](NC(=O)c2cc3cccc(-c4nccs4)c3s2)C2CCN1CC2 [(R)-129, (R)—N-(2,2-dimethylquinuclidin-3-yl)-7-(thiazol-2-yl)benzo[b]thiophene-2-carboxamide hydrochloride]	440
CC1(C)[C@H](NC(=O)c2cc3cccc(-c4ccccc4)c3s2)C2CCN1CC2 [(R)-132, (R)—N-(2,2-dimethylquinuclidin-3-yl)-7-phenylbenzo[b]thiophene-2-carboxamide hydrochloride]	100
CC1(c2cccc3cc(C(=O)N[C@@H]4C5CCN(CC5)C4(C)C)sc23)CC1 [(R)-133, (R)—N-(2,2-dimethylquinuclidin-3-yl)-7-(1-methylcyclopropyl)benzo[b]thiophene-2-carboxamide hydrochloride]	400
Cc1ccc2cc(C(=O)N[C@@H]3C4CCN(CC4)C3(C)C)sc2c1C1CC1 [(R)-140, (R)-7-cyclopropyl-N-(2,2-dimethylquinuclidin-3-yl)-6-methylbenzo[b]thiophene-2-carboxamide hydrochloride]	22000
COCc1cccc2cc(C(=O)N[C@@H]3C4CCN(CC4)C3(C)C)sc12 [(R)-143, (R)—N-(2,2-dimethylquinuclidin-3-yl)-7-(methoxymethyl)benzo[b]thiophene-2-carboxamide hydrochloride]	740
O=C(N[C@@H]1C2CCN(CC2)C12CC2)c1cc2ccc(Cl)c(C(F)(F)F)c2s1 [(R)-152, (R)-6-chloro-N-(1′-azaspiro[cyclopropane-1,2′-bicyclo[2.2.2]octan]-3′-yl)-7-(trifluoromethyl)benzo[b]thiophene-2-carboxamide hydrochloride]	> 10000
COc1ccc2cc(C(=O)N[C@@H]3C4CCN(CC4)C34CC4)sc2c1Cl [(R)-154, (R)-7-chloro-6-methoxy-N-(1′-azaspiro[cyclopropane-1,2′-bicyclo[2.2.2]octan]-3′-yl)benzo[b]thiophene-2-carboxamide hydrochloride]	6200
N#Cc1cccc2cc(C(=O)N[C@@H]3C4CCN(CC4)C34CC4)sc12 [(R)-160, (R)-7-cyano-N-(1′-azaspiro[cyclopropane-1,2′-bicyclo[2.2.2]octan]-3′-yl)benzo[b]thiophene-2-carboxamide hydrochloride]	260
O=C(N[C@@H]1C2CCN(CC2)C12CC2)c1cc2cccc(C3CC3)c2s1 [(R)-165, (R)-7-cyclopropyl-N-(1′-azaspiro[cyclopropane-1,2′-bicyclo[2.2.2]octan]-3′-yl)benzo[b]thiophene-2-carboxamide hydrochloride]	200
CC(C)c1cccc2cc(C(=O)N[C@@H]3C4CCN(CC4)C34CC4)sc12 [(R)-166, (R)-7-isopropyl-N-(1′-azaspiro[cyclopropane-1,2′-bicyclo[2.2.2]octan]-3′-yl)benzo[b]thiophene-2-carboxamide hydrochloride]	325
O=C(N[C@@H]1C2CCN(CC2)C12CC2)c1cc2cccc(OC(F)(F)F)c2s1 [(R)-167, (R)—N-(1′-azaspiro[cyclopropane-1,2′-bicyclo[2.2.2]octan]-3′-yl)-7-(trifluoromethoxy)benzo[b]thiophene-2-carboxamide hydrochloride]	895
O=C(N[C@@H]1C2CCN(CC2)C12CC2)c1cc2ccccc2[nH]1 [(R)-170, (R)—N-(1′-azaspiro[cyclopropane-1,2′-bicyclo[2.2.2]octan]-3′-yl)-1H-indole-2-carboxamide hydrochloride]	800
O=C(N[C@@H]1C2CCN(CC2)C12CC2)c1cc2cc(F)c(Cl)cc2s1 [(R)-172, (R)-6-chloro-5-fluoro-N-(1′-azaspiro[cyclopropane-1,2′-bicyclo[2.2.2]octan]-3′-yl)benzo[b]thiophene-2-carboxamide hydrochloride]	4900
COc1cc2sc(C(=O)N[C@@H]3C4CCN(CC4)C34CC4)cc2cc1F [(R)-173, (R)-5-fluoro-6-methoxy-N-(1′-azaspiro[cyclopropane-1,2′-bicyclo[2.2.2]octan]-3′-yl)benzo[b]thiophene-2-carboxamide hydrochloride]	> 10000
O=C(N[C@@H]1C2CCN(CC2)C12CC2)c1cc2cc(F)c(Cl)c(F)c2s1 [(R)-175, (R)-6-chloro-5,7-difluoro-N-(1′-azaspiro[cyclopropane-1,2′-bicyclo[2.2.2]octan]-3′-yl)benzo[b]thiophene-2-carboxamide hydrochloride]	> 10000
Cc1cccc2cc(C(=O)N[C@@H]3C4CCN(CC4)C34CC4)sc12 [(R)-176, (R)-7-methyl-N-(1′-azaspiro[cyclopropane-1,2′-bicyclo[2.2.2]octan]-3′-yl)benzo[b]thiophene-2-carboxamide hydrochloride]	130
O=C(N[C@@H]1C2CCN(CC2)C12CC2)c1cc2cccc(CC(F)(F)F)c2s1 [(R)-177, (R)—N-(1′-azaspiro[cyclopropane-1,2′-bicyclo[2.2.2]octan]-3′-yl)-7-(2,2,2-trifluoroethyl)benzo[b]thiophene-2-carboxamide hydrochloride]	690

What follows are compounds tested against human α7 nAChRs transiently expressed in Xenopus laevis oocytes (Homo sapiens (Human), UniProt P36544) (assay: Oocyte electrophysiology screen (TEVC)). Settings: 0.01 mM test compound, peak current relative to 0.2 mM ACh.
human α7 nAChRs transiently expressed in Xenopus laevis oocytes, sequence (P36544 23-502 limits assumed): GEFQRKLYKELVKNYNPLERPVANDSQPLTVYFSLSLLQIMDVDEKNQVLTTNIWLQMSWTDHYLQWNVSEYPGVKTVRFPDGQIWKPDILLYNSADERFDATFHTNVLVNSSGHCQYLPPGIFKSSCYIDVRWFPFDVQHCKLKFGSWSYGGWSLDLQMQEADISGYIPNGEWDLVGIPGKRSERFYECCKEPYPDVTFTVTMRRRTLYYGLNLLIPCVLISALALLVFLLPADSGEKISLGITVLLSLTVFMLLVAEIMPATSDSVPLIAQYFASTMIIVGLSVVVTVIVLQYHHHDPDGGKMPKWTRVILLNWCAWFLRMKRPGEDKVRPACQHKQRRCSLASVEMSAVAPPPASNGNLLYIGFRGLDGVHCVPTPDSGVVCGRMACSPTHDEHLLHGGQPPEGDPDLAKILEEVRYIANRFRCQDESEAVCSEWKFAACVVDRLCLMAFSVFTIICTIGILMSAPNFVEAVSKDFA
Type: cell-based
Method in brief: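 Oocytes expressing human α7 were clamped at −80 mV by TEVC. After a 0.2 mM ACh control pulse, test compound was applied at 0.01 mM for 30 s. Agonist response is peak current as % of the ACh response, in triplicate.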

Compound	% ACh @ 10 μM Oocyte [% ACh]
CC1(C)[C@@H](NC(=O)c2cc3ccoc3cn2)C2CCN1CC2 [(S)-22, (S)—N-(2,2-dimethylquinuclidin-3-yl)furo[2,3-c]pyridine-5-carboxamide hydrochloride]	25
CC1(C)[C@@H](NC(=O)c2cc3c(cn2)OCCO3)C2CCN1CC2 [(S)-23, (S)—N-(2,2-dimethylquinuclidin-3-yl)-2,3-dihydro-[1,4]dioxino[2,3-c]pyridine-7-carboxamide hydrochloride]	0
CC1(C)[C@@H](NC(=O)c2cnn3ncccc23)C2CCN1CC2 [(S)-27, (S)—N-(2,2-dimethylquinuclidin-3-yl)pyrazolo[1,5-b]pyridazine-3-carboxamide hydrochloride]	0
CC1(C)[C@@H](NC(=O)c2cc3cccnc3s2)C2CCN1CC2 [(S)-28, (S)—N-(2,2-dimethylquinuclidin-3-yl)thieno[2,3-b]pyridine-2-carboxamide hydrochloride]	1
CC1(C)[C@@H](NC(=O)c2nc3ccccc3s2)C2CCN1CC2 [(S)-29, (S)—N-(2,2-dimethylquinuclidin-3-yl)benzo[d]thiazole-2-carboxamide hydrochloride]	2
O=C(N[C@H]1C2CCN(CC2)C12CC2)c1cc2ccoc2cn1 [(S)-75, (S)—N-(1′-azaspiro[cyclopropane-1,2′-bicyclo[2.2.2]octan]-3′-yl)furo[2,3-c]pyridine-5-carboxamide hydrochloride]	14
O=C(N[C@H]1C2CCN(CC2)C12CC2)c1cc2c(cn1)OCCO2 [(S)-76, (S)—N-(1′-azaspiro[cyclopropane-1,2′-bicyclo[2.2.2]octan]-3′-yl)-2,3-dihydro-[1,4]dioxino[2,3-c]pyridine-7-carboxamide hydrochloride]	1
O=C(N[C@H]1C2CCN(CC2)C12CC2)c1cnn2ncccc12 [(S)-80, (S)—N-(1′-azaspiro[cyclopropane-1,2′-bicyclo[2.2.2]octan]-3′-yl)pyrazolo[1,5-b]pyridazine-3-carboxamide hydrochloride]	2
O=C(N[C@H]1C2CCN(CC2)C12CC2)c1cc2cccnc2s1 [(S)-81, (S)—N-(1′-azaspiro[cyclopropane-1,2′-bicyclo[2.2.2]octan]-3′-yl)thieno[2,3-b]pyridine-2-carboxamide hydrochloride]	1
O=C(N[C@H]1C2CCN(CC2)C12CC2)c1nc2ccccc2s1 [(S)-82, (S)—N-(1′-azaspiro[cyclopropane-1,2′-bicyclo[2.2.2]octan]-3′-yl)benzo[d]thiazole-2-carboxamide hydrochloride]	2
(R)-N-(2,2-dimethylquinuclidin-3-yl)-6-(trifluoromethoxy)benzo[b]thiophene-2-carboxamide hydrochloride [(R)-209]	1

From patent US10183938B2, “Geminal substituted quinuclidine amide compounds as agonists of α-7 nicotonic acetylcholine receptors” (AXOVANT SCIENCES GMBH, priority 2014, dated 2019)
